23 compounds from patent US6423689B1, “Peptidyl calcium channel blockers” (Warner-Lambert Company, priority 1997, dated 2002) can be followed below.

One may read the inhibition as the percentage by which the read-out fell short of the control. What is called pIC50 is the IC50 on a negative log10 scale, so that one unit is a factor of ten.

In this experiment the target is T1, N-type Ca2+ channels in IMR-32 cells (Homo sapiens, UniProt Q00975).
T1 construct: host or cells: IMR-32 cells, differentiated with dibutyryl cAMP and bromodeoxyuridine
In words: Inhibition of N-type calcium flux in IMR-32 cells (Indo-1 fluorescence, nitrendipine present). In kind it is cell-based. The note with it: for inhibition at 1 µM / inhibition at 10 µM: IMR-32; for pIC50: IMR-32 cells, 5 μM nitrendipine, K+ depolarization. An outline of the steps: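 Differentiated IMR-32 cells (7–13 days) were loaded with 5 μM Indo-1 AM, preincubated with compound for 10 min at 30° C, and depolarized with KCl/CaCl2 stimulation solution, with 5 μM nitrendipine blocking L-channels. Peak-minus-basal 400/490 nm emission ratio was plotted against drug concentration, and IC50 came from four-parameter logistic fits.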
(A change in cytosolic calcium serves as a functional read-out for many receptors and channels.)

Structures are written as SMILES. pIC50: −log10 of the molar value. *1 amine or outer side, *2 acyl side, *3 side chain or, on linkers, in order; H or OH if unused. Where a SMILES comes first, the peptide text is derived from it. The star is where a group is joined. Piperidide = C1CCN(*)CC1; CO = O=C([*:1])[*:2]; Bn = c1ccc(C*)cc1; OtBu = CC(C)(C)O*

T1 sequence (Q00975 whole entry): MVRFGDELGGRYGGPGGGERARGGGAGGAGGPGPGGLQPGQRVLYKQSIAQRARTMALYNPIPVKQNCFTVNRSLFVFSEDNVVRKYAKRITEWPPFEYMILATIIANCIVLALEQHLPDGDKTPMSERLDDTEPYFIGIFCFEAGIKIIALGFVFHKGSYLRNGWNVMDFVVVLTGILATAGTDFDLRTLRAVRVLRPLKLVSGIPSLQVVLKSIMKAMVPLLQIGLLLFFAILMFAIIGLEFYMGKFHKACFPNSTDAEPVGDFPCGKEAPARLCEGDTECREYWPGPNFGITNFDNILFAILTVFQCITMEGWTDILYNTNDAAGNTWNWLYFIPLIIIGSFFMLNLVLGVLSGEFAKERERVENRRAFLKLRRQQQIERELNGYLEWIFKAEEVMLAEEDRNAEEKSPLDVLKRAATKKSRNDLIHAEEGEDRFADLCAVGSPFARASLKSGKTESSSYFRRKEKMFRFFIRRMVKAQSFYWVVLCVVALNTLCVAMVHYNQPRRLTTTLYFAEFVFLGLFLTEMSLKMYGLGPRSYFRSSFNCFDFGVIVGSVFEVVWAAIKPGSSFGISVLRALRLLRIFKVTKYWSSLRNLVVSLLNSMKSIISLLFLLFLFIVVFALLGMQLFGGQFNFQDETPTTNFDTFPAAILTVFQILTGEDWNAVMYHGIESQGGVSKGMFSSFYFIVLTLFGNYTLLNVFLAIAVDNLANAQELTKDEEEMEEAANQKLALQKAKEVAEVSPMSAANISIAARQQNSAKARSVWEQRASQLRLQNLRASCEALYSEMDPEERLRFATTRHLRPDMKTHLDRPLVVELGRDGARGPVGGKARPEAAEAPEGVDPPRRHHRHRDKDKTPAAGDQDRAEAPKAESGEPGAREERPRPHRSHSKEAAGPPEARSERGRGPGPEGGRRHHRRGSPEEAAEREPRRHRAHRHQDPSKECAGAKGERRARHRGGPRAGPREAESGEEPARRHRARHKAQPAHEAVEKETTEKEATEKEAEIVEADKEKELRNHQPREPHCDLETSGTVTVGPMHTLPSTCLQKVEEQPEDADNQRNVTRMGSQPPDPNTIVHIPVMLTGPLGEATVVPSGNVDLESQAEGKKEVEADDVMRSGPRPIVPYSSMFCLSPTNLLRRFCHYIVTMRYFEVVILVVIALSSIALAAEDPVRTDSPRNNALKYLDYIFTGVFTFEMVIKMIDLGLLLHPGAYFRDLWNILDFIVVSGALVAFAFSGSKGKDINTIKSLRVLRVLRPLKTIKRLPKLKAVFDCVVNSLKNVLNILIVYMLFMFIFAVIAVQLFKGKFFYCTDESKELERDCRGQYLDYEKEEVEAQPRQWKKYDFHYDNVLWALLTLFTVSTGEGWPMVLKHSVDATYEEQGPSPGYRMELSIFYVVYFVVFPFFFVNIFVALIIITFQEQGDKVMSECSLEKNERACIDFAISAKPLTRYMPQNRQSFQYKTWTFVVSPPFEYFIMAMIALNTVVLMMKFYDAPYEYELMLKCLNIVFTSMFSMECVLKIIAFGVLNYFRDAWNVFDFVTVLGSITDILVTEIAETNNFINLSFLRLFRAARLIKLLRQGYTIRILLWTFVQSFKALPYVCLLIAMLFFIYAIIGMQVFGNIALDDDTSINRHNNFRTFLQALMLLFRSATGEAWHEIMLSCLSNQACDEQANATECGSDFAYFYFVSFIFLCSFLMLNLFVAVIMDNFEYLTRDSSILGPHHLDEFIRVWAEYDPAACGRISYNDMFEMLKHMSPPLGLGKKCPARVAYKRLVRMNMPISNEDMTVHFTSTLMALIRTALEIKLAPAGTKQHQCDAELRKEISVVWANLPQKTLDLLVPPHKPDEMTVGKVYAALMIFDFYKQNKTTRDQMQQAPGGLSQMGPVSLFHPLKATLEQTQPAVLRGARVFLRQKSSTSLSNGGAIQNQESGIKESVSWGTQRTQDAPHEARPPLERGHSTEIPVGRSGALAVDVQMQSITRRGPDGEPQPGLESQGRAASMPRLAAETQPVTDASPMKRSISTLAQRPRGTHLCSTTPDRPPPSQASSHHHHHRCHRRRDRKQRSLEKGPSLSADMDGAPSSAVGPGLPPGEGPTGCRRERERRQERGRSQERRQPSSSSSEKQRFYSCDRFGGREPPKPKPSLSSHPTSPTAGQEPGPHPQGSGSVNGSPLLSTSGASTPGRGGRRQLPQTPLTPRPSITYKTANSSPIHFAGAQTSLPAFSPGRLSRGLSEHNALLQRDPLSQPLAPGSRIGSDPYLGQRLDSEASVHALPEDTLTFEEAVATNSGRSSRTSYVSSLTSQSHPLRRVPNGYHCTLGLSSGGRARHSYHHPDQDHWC
T1 sequence (P54289 25-956 partner limits assumed): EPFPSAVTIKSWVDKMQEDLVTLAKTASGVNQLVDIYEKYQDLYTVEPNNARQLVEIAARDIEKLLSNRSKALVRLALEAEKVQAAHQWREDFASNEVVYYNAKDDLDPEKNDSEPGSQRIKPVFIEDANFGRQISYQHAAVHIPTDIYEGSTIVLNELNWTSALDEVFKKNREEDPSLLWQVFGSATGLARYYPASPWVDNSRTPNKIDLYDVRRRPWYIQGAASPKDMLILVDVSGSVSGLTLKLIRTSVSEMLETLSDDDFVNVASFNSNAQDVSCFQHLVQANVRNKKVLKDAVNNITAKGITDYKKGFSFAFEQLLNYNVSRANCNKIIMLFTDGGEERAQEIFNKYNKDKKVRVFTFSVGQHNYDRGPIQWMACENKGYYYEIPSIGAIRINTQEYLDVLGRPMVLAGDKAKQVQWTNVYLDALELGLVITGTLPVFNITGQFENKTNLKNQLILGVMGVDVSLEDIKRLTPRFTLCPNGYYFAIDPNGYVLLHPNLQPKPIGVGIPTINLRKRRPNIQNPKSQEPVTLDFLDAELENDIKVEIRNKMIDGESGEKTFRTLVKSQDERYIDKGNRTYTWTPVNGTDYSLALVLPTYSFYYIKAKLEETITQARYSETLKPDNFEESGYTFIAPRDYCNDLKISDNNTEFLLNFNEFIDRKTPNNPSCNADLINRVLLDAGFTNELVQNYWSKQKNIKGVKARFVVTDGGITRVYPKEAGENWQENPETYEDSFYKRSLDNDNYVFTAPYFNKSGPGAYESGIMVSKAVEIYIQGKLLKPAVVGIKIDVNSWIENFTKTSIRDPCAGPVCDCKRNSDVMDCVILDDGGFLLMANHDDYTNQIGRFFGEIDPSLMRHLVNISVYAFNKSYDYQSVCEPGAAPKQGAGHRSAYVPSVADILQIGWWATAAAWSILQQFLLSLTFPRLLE
T1 sequence (P54289 957-1103 partner limits assumed): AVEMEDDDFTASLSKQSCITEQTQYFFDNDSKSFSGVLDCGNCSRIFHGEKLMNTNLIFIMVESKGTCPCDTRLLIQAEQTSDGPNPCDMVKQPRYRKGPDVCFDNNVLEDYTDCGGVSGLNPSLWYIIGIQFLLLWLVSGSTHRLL
T1 sequence (P54284 whole entry partner): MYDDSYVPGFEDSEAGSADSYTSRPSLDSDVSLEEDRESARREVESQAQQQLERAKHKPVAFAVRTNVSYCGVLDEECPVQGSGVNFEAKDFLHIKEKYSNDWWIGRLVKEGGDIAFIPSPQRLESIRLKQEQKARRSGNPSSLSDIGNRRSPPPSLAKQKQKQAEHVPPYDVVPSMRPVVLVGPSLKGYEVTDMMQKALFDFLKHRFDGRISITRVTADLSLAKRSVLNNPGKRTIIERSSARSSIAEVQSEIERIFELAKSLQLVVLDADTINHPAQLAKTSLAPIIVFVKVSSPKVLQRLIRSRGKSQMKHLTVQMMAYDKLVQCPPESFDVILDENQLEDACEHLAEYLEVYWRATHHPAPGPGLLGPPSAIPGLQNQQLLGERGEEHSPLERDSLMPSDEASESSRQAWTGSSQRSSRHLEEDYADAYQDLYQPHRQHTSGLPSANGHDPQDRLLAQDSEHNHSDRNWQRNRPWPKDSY

As for `CSCCC(CO)NC(=O)[C@H](Cc1ccc(OCc2ccccc2)cc1)NC(=O)C(CC(C)C)NC(=O)N1CCCCCC1` (stereo in doubt) [Example 238, Azepane-1-carboxylic acid {(R)-1-[(S)-2-(4-benzyloxy-phenyl)-(S)-1-(1-hydroxymethyl-3-methylsulfanyl-propylcarbamoyl)-ethylcarbamoyl]-3-methyl-butyl}-amide], the inhibition at 1 µM came to 62%, the inhibition at 10 µM is 95% and the pIC50 was 6.13. Turning to `CC(C)[C@H](NC(=O)N1CCCCCC1)C(=O)N[C@@H](Cc1ccc(OCc2ccccc2)cc1)C(=O)OC(C)(C)C` [Example 6, [S-(R*,R*)]-2-{2-[(Azepane-1-carbonyl)-amino]-3-methyl-butyrylamino}-3-(4-benzyloxy-phenyl)-propionic acid tert-butyl ester], the inhibition at 1 µM was found to be 63%, the inhibition at 10 µM amounted to 98% and the pIC50 was 6.14.

For the compound `CC(C)C[C@H](NC(=O)N1CCCCCC1)C(=O)N[C@@H](Cc1ccc(OCc2ccc(C#N)cc2)cc1)C(=O)OC(C)(C)C` [Example 27, [S-(R*,R*)]-2-{2-[(Azepane-1-carbonyl)-amino]-4-methyl-pentanoylamino}-3-[4-(4-cyano-benzyloxy)-phenyl]-propionic acid tert-butyl ester], the inhibition at 1 µM was found to be 51%, the inhibition at 10 µM turned out to be 92% and the pIC50 is 6.09. As to `COc1ccc(COc2ccc(C[C@H](NC(=O)[C@H](CC(C)C)NC(=O)N3CCCCCC3)C(=O)OC(C)(C)C)cc2)cc1` [Example 32, [S-(R*,R*)]-2-{2-[(Azepane-1-carbonyl)-amino]-4-methyl-pentanoylamino}-3-[4-(4-methoxy-benzyloxy)-phenyl]-propionic acid tert-butyl ester], the inhibition at 1 µM turned out to be 52%, the inhibition at 10 µM worked out at 86% and the pIC50 is 6.09. On to `CC(C)C[C@H](NC(=O)N1CCCCC1)C(=O)N[C@@H](Cc1ccc(OCc2ccccc2)cc1)C(=O)OC(C)(C)C` [Example 33, [S-(R*,R*)]-3-(4-Benzyloxy-phenyl)-2-{4-methyl-2-[(piperidine-1-carbonyl)-amino]-pentanoylamino}-propionic acid tert-butyl ester] ({Piperidide-CO}-Leu-Tyr(Bn)-OtBu), for which the inhibition at 1 µM turned out to be 48%, the inhibition at 10 µM worked out at 79% and the pIC50 is 5.66. As for `CC(C)C[C@H](NC(=O)N[C@H](C)c1ccccc1)C(=O)N[C@@H](Cc1ccc(OCc2ccccc2)cc1)C(=O)OC(C)(C)C` [Example 63, 3-(4-Benzyloxy-phenyl)-(S)-2-{4-methyl-(S)-2-[3-[(R)-1-phenyl-ethyl]-ureido]-pentanoylamino}-propionic acid tert-butyl ester], the inhibition at 1 µM was determined as 33%. For the compound `COC(=O)C(Cc1ccccc1)NC(=O)NC(CC(C)C)C(=O)NC(Cc1ccc(OCc2ccccc2)cc1)C(=O)OC(C)(C)C` (stereo not drawn) [Example 66, [S-(R*,R*)]-3-(4-Benzyloxy-phenyl)-{2-[3-(1-methoxycarbonyl-2-phenyl-ethyl)-ureido]-4-methyl-pentanoylamino}-propionic acid tert-butyl ester] ({OMe-Phe-CO}-Leu-Tyr(Bn)-OtBu; configuration not given here), the “Inhibition of Calcium Flux in IMR-32 Cells % Inhibition at 1 μM” value (1 μM) is 42%.

With `Cc1noc(C)c1S(=O)(=O)N[C@@H](CC(C)C)C(=O)N[C@@H](Cc1ccc(OCc2ccccc2)cc1)C(=O)OC(C)(C)C` [Example 111, [S-(R*,R*)]-3-(4-Benzyloxy-phenyl)-2-[2-(3,5-dimethyl-isoxazole-4-sulfonylamino)-4-methyl-pentanoylamino]-propionic acid tert-butyl ester], the inhibition at 1 µM was found to be 50%, the inhibition at 10 µM was determined as 96% and the pIC50 was 5.96. On to `O=C(NCCN1CCCCC1)[C@H](Cc1ccc(OCc2ccccc2)cc1)NC(=O)[C@@H]1CCCN1C(=O)N1CCCCCC1` [Example 152, [S-(R*,R*)]-1-(Azepane-1-carbonyl)-pyrrolidine-2-carboxylic acid [2-(4-benzyloxy-phenyl)-1-(2-piperidin-1-yl-ethylcarbamoyl)-ethyl]-amide], for which the pIC50 is 5.72. Turning to `CC(C)(C)NC(=O)[C@H](Cc1ccc(OCc2ccccc2)cc1)NC(=O)[C@@H]1CCCN1C(=O)N1CCCCCC1` [Example 153, [S-(R*,R*)]-1-(Azepane-1-carbonyl)-pyrrolidine-2-carboxylic acid [2-(4-benzyloxy-phenyl)-1tert-butylcarbamoyl-ethyl]-amide], the pIC50 is 5.43. On to `CSCC[C@H](NC(=O)N1CCCCCC1)C(=O)N[C@@H](Cc1ccc(OCc2ccccc2)cc1)C(=O)NCCN1CCCCC1` [Example 154, [S-(R*,R*)]-Azepane-1-carboxylic acid {1-[2-(4-benzyloxy-phenyl)-1-(2-piperidin-1-ylethylcarbamoyl)-ethylcarbamoyl]-3-methylsulfanyl-propyl}-amide], for which the pIC50 is 5.02. `CSCC[C@H](NC(=O)N1CCCCCC1)C(=O)N[C@@H](Cc1ccc(OCc2ccccc2)cc1)C(=O)NC(C)(C)C` [Example 155, [S-(R*,R*)]-Azepane1-carboxylic acid {1-[2-(4-benzyloxy-phenyl)-1-tert-butylcarbamoyl-ethylcarbamoyl]-3-methylsulfanyl-propyl}-amide]: the pIC50 was 5.60.

With `O=C(NCCN1CCCCC1)[C@H](Cc1ccc(OCc2ccccc2)cc1)NC(=O)[C@H](Cc1ccc(O)cc1)NC(=O)N1CCCCCC1` [Example 156, [S-(R*,R*)]-Azepane-1-carboxylic acid [1-[2-(4-benzyloxy-phenyl)-1-(2-piperidin-1-ylethylcarbamoyl)-ethylcarbamoyl]-2-(4-hydroxy-phenyl)-ethyl]-amide], the pIC50 is 5.28. Same read-out and setting: the same measure for `O=C(NCCN1CCCCC1)[C@H](Cc1ccc(OCc2ccccc2)cc1)NC(=O)[C@H](Cc1ccc(Br)cc1)NC(=O)N1CCCCCC1` [Example 157, [S-(R*,R*)]-Azepane-1-carboxylic acid [1-[2-(4-benzyloxy-phenyl)-1-(2-piperidin-1-ylethylcarbamoyl)-ethylcarbamoyl]-2-(4-bromo-phenyl)-ethyl]-amide]: 5.64; for `CC(C)(C)NC(=O)[C@H](Cc1ccc(OCc2ccccc2)cc1)NC(=O)[C@H](Cc1ccc(O)cc1)NC(=O)N1CCCCCC1` [Example 160, [S-(R*,R*)]-Azepane-1-carboxylic acid [1-[2-(4-benzyloxy-phenyl)-1-tert-butylcarbamoyl-ethylcarbamoyl]-2-(4-hydroxy-phenyl)-ethyl]-amide]: 5.60. Regarding `CC(C)(C)NC(=O)[C@H](Cc1ccc(OCc2ccccc2)cc1)NC(=O)[C@H](Cc1ccc(OC(C)(C)C)cc1)NC(=O)N1CCCCCC1` [Example 163, [S-(R*,R*)]-Azepane-1-carboxylic acid [1-[2-(4-benzyloxy-phenyl)-1-tert-butylcarbamoyl-ethylcarbamoyl]-2-(4-tert-butoxy-phenyl)-ethyl]-amide], the pIC50 is 6.31.

For the compound `CC(C)(C)NC(=O)[C@H](Cc1ccc(OCc2ccccc2)cc1)NC(=O)[C@H](CCCCC(=O)OC(C)(C)C)NC(=O)N1CCCCCC1` [Example 164, [S-(R*,R*)]-6-[(Azepane-1-carbonyl)-amino]-6-[2-(4-benzyloxy-phenyl)-1-tert-butylcarbamoyl-ethylcarbamoyl]-hexanoic acid tert-butyl ester], the pIC50 was 6.05. Consider `CC(C)C[C@H](NC(=O)N1CCCCCC1)C(=O)N[C@@H](Cc1ccc(OCc2ccccc2)cc1)C(=O)N1CCOCC1` [Example 166, [S-(R*,R*)]-Azepane-1-carboxylic acid {1-[1-(4-benzyloxy-benzyl)-2-morpholin-4-yl-2-oxo-ethylcarbamoyl]-3-methyl-butyl}-amide], for which the negative logarithm of the IC50 (pIC50) was 5.89. `CCCCCCNC(=O)[C@H](Cc1ccc(OCc2ccccc2)cc1)NC(=O)[C@H](CC(C)C)NC(=O)N1CCCCCC1` [Example 168, [S-(R*,R*)]-Azepane-1-carboxylic acid {1-[2-(4-benzyloxy-phenyl)-1-hexylcarbamoyl-ethylcarbamoyl]-3-methyl-butyl}-amide]: the pIC50 is 6.17. In the case of `CCCNC(=O)[C@H](Cc1ccc(OCc2ccccc2)cc1)NC(=O)[C@H](CC(C)C)NC(=O)N1CCCCCC1` [Example 169, [S-(R*,R*)]-Azepane-1-carboxylic acid {1-[2-(4-benzyloxy-phenyl)-1-propylcarbamoyl-ethylcarbamoyl]-3-methyl-butyl}-amide], the pIC50 was 5.80. On to `CC(C)C[C@H](NC(=O)N1CCCCCC1)C(=O)N[C@@H](Cc1ccc(OCc2ccccc2)cc1)C(=O)NCCN1CCCC1=O` [Example 170, [S-(R*,R*)]-Azepane-1-carboxylic acid (1-{2-(4-benzyloxy-phenyl)-1-[2-(2-oxo-pyrrolidin-1yl)-ethylcarbamoyl]-ethylcarbamoyl}-3-methyl-butyl)-amide], for which the pIC50 was 5.89. As to `CC(C)C[C@H](NC(=O)N1CCCCCC1)C(=O)N[C@@H](Cc1ccc(OCc2ccccc2)cc1)C(=O)NCCc1c[nH]cn1` [Example 172, [S-(R*,R*)]-Azepane-1-carboxylic acid (1-{2-(4-benzyloxy-phenyl)-1-[2-(1H-imidazol-4-yl)ethylcarbamoyl]-ethylcarbamoyl}-3-methyl-butyl)-amide], the pIC50 is 5.64.

As to `CC(C)C[C@H](NC(=O)N1CCCCCC1)C(=O)N[C@@H](Cc1ccc(OCc2ccccc2)cc1)C(=O)NCCN(C)C` [Example 175, [S-(R*,R*)]-Azepane-1-carboxylic acid {1-[2-(4-benzyloxy-phenyl)-1-(2-dimethylamino-ethylcarbamoyl)-ethylcarbamoyl]-3-methyl-butyl}-amide], the pIC50 is 5.57.
